Assay results: article PMC10600239, “Selective MCL-1 inhibitor ABBV-467 is efficacious in tumor models but is associated with cardiac troponin increases in patients” (Communications Medicine, 2023)
“And” between values parts separate entries of the source, which are not always exact repeats. Equal entries are not always repeated.

System: AMO-1 xenografts
Assay: AMO-1 xenograft efficacy (tumor volume, body weight)
Format: in vivo, mouse
Procedure: All animal studies were conducted in accordance with the guidelines approved by the Institutional Animal Care and Use Committees of AbbVie. The research protocol was approved by In Vivo Pharmacology at AbbVie prior to study initiation but was not publicly registered or disclosed. Female C.B-17 SCID-beige mice (AMO-1, OPM-2, NCI-H929, and OCI-AML2 xenografts) and female NSG mice (MV4-11-Red.Fluc systemic) were purchased from Charles River Laboratories (Wilmington, MA). Animals were housed in a light cycle-controlled room with HEPA filtration at 22 °C. Animals had nesting and climbing cage topper as the primary environmental enrichment. Animals were inoculated subcutaneously in the right flank with 5 × 10^6 (AMO-1, OPM-2, NCI-H929, and OCI-AML2) or intravenous (IV) with 5 × 10^6 (MV4-11-Red.Fluc). The inoculation volume (0.2 mL) comprised a 50:50 mixture of cells in growth media and Matrigel (BD Biosciences) for subcutaneous injections and 100% phosphate-buffered saline for IV administration. All cell lines used in this publication were authenticated using IDEXX for STR profiling as well as their IMPACT and human IMPACT panels for pathogen screening. Electronic calipers were used to measure the length and width of each tumor 2 to 3 times per week. Tumor volume was estimated by applying the following equation: volume = length × width^2/2. All groups remained blinded during measurements and dosing; only veterinary staff were aware of group identity. When tumors reached approximately 200 mm^3, mice were randomized by match and distributed into treatment and control groups. All xenograft trials were conducted using 5 to 10 mice per group, and all mice were ear tagged and monitored individually throughout the studies. […] Tumor burden in the systemic MV4-11-Red.Fluc experiment was measured using an IVIS® spectrum from PerkinElmer by taking the total photon flux of the entire dorsal side of an individual mouse. […] A background control mouse that was tumor naive but received D-Luciferin was placed in the upper left corner of each image. The total flux from this animal was subtracted from the total flux of each animal present in the image.
For in vivo studies, maximal tumor growth inhibition (TGI) was calculated as the greatest treatment response using the following equation: Maximal TGI = (1 − mean tumor volume of the treated group/mean tumor volume of the vehicle control group) × 100. The tumor growth delay (TGD) percentage was determined as the percentage increase of the median time period for the treatment group to reach an arbitrary tumor volume of 1000 mm^3 relative to the vehicle control group. […] A power analysis was conducted using historical data to determine the number of animals required to yield significance of 0.05 at a 30% difference. […] Data from experiments in vivo were analyzed using the student’s t-test for TGI values and the Mann–Whitney U test for TGD using Excel and GraphPad Prism. Fisher’s exact test was used to probe significance of differences in response frequency.

[1] = 6.25 mg/kg Q7Dx2 IV, SCID-beige female mice, Day 26
[2] = 6.25 mg/kg Q7Dx2 IV, SCID-beige female mice, Day 28
[3] = 6.25 mg/kg Q7Dx2 IV, SCID-beige mice, Day 13 (measure date 10/25/2017, dosing begin 10/26/2017)
[4] = 6.25 mg/kg QDx1 IV, Day 26, n=8
[5] = 6.25 mg/kg QDx1 IV, Day 28, n=8
[6] = 6.25 mg/kg QDx1 IV, SCID-beige mice, Day 21
[7] = 6.25 mg/kg QDx1 IV, SCID-beige mice, Day 23
[8] = 6.25 mg/kg QDx1 IV, SCID-beige mice, Day 23, mean(T)/mean(C)
[9] = 6.25 mg/kg QDx1 IV, SCID-beige mice, Day 23, median(T)/median(C)

SMILES: Cc1c(Cl)c2c(Cl)c(C)c1-c1c(-c3ccc(F)cc3)sc3ncnc(c13)O[C@@H](C(=O)O)Cc1cc(ccc1OCc1ccnc(-c3ccc(OC[C@H]4COCCO4)cc3)n1)OC[C@@H](CN1CCN(C)CC1)O2 [Compound A-1747745.0]
- Xenograft AMO-1 (DSMZ) tumor volume Day 24, Median (6.25 mg/kg Q7Dx2 IV, SCID-beige female mice, Day 24): 183.76 mm³
- Xenograft AMO-1 (DSMZ) tumor volume Day 26, Mean [1]: 300.68 mm³
- Xenograft AMO-1 (DSMZ) tumor volume Day 26, Median [1]: 173.91 mm³
- Xenograft AMO-1 (DSMZ) tumor volume Day 26, individual animals [1]: 165 mm³ and 890 mm³ and 293 mm³ and 308 mm³ and 143 mm³ and 174 mm³ and 132 mm³
- Xenograft AMO-1 (DSMZ) (mm³) Day 28, individual animals [2]: 242 mm³ and 1605 mm³ and 585 mm³ and 510 mm³ and 266 mm³ and 306 mm³ and 32 mm³
- Xenograft AMO-1 (DSMZ) Day 28 Mean [2]: 506.48 mm³
- Xenograft AMO-1 (DSMZ) Day 28 Median [2]: 305.62 mm³
- Xenograft AMO-1 (DSMZ) tumor volume Day 13, Mean [3]: 222.44 mm³
- Xenograft AMO-1 (DSMZ) tumor volume Day 13, Median [3]: 219.48 mm³
- Xenograft AMO-1 (DSMZ) tumor volume Day 13, individual animals [3]: 230 mm³ and 206 mm³ and 247 mm³ and 219 mm³ (2×) and 232 mm³ and 204 mm³
- Xenograft AMO-1 (DSMZ) (mm³) Day 32 Mean (6.25 mg/kg Q7Dx2 IV, group mean tumor volume, Day 32): 1661.51 mm³
- Xenograft AMO-1 (DSMZ) (mm³) Day 32 Median (6.25 mg/kg Q7Dx2 IV, group median tumor volume, Day 32): 1251.91 mm³
- Xenograft AMO-1 (DSMZ) (mm³) Day 32 (6.25 mg/kg Q7Dx2 IV, individual animal tumor volume, Day 32): 1252 mm³ and 3313 mm³ and 2126 mm³ and 1223 mm³ and 2463 mm³ and 1036 mm³ and 218 mm³
- Xenograft AMO-1 (DSMZ) tumor volume Day 26, Mean [4]: 454.97 mm³
- Xenograft AMO-1 (DSMZ) tumor volume Day 26, Median [4]: 392.97 mm³
- % T/C (mean) tumor volume Day 26 (6.25 mg/kg QDx1 IV, Day 26, mean(T)/mean(C)): 28.88%
- % T/C (median) tumor volume Day 26 (6.25 mg/kg QDx1 IV, Day 26, median(T)/median(C)): 24.60%
- Xenograft AMO-1 (DSMZ) tumor volume Day 28, Mean [5]: 690.68 mm³
- Xenograft AMO-1 (DSMZ) tumor volume Day 28, Median [5]: 578.26 mm³
- % T/C (mean) tumor volume Day 28 (6.25 mg/kg QDx1 IV, Day 28, mean(T)/mean(C)): 33.71%
- % T/C (median) tumor volume Day 28 (6.25 mg/kg QDx1 IV, Day 28, median(T)/median(C)): 29.98%
- Xenograft AMO-1 (DSMZ) tumor volume Day 26, individual animals (6.25 mg/kg QDx1 IV, SCID-beige female mice, Day 26): 386 mm³ and 701 mm³ and 245 mm³ and 206 mm³ and 598 mm³ and 235 mm³ and 868 mm³ and 400 mm³
- Xenograft AMO-1 (DSMZ) tumor volume Day 28, individual animals (6.25 mg/kg QDx1 IV, SCID-beige female mice, Day 28): 518 mm³ and 1122 mm³ and 542 mm³ and 307 mm³ and 666 mm³ and 511 mm³ and 1246 mm³ and 614 mm³
- Xenograft AMO-1 (DSMZ) Day 21, Mean [6]: 175.92 mm³
- Xenograft AMO-1 (DSMZ) Day 21, Median [6]: 202.13 mm³
- Xenograft AMO-1 (DSMZ) (mm³) Day 21, individual animals (6.25 mg/kg QDx1 IV, SCID-beige mice, Day 21, individual tumor volumes): 202 mm³ (2×) and 236 mm³ and 49 mm³ and 84 mm³ and 144 mm³ and 230 mm³ and 260 mm³
- % T/C (mean), Tumor Volume Day 21 (6.25 mg/kg QDx1 IV, SCID-beige mice, Day 21, mean(T)/mean(C)): 27.52%
- % T/C (median), Tumor Volume Day 21 (6.25 mg/kg QDx1 IV, SCID-beige mice, Day 21, median(T)/median(C)): 38.38%
- Xenograft AMO-1 (DSMZ) Day 23 Mean [7]: 218.85 mm³
- Xenograft AMO-1 (DSMZ) Day 23 Median [7]: 225.89 mm³
- Xenograft AMO-1 (DSMZ) (mm³) Day 23, individual animals (6.25 mg/kg QDx1 IV, SCID-beige mice, Day 23, individual tumor volumes): 209 mm³ and 282 mm³ and 56 mm³ and 156 mm³ and 155 mm³ and 243 mm³ and 349 mm³ and 301 mm³
- % T/C (mean), body weight Day 23 [8]: 103.53%
- % T/C (mean), tumor volume Day 23 [8]: 20.49%
- % T/C (median), body weight Day 23 [9]: 103.53%
- % T/C (median), tumor volume Day 23 [9]: 23.21%
- Xenograft AMO-1 (DSMZ) (mm³) Day 30 (individual animals) (6.25 mg/kg QDx1 IV, Day 30, SCID-beige female mice, tumor volume per animal): 694 mm³ and 1347 mm³ and 555 mm³ and 384 mm³ and 801 mm³ and 782 mm³ and 1535 mm³ and 959 mm³
- Xenograft AMO-1 (DSMZ) (mm³) Day 30 Mean (6.25 mg/kg QDx1 IV, Day 30, group mean): 882.20 mm³
- Xenograft AMO-1 (DSMZ) (mm³) Day 30 Median (6.25 mg/kg QDx1 IV, Day 30, group median): 791.67 mm³
- Xenograft AMO-1 (DSMZ) (mm³) Day 34 (individual animals) (6.25 mg/kg QDx1 IV, Day 34, SCID-beige female mice, tumor volume per animal): 2680 mm³ and 1975 mm³ and 1296 mm³ and 886 mm³ and 1388 mm³ and 1259 mm³ and 1718 mm³ and 1542 mm³
